# Source: patent US10421676B2, “Bactericidal/algicidal method” (priority 2007, dated 2019)
# Experiment: Open-circulating cooling water system, change over time in combined and free chlorine (Example 4 / Comparative Example 1)
# Assay type: physicochemical
# Conditions: for Combined chlorine: total residual chlorine minus free chlorine (DPD)
# Text: In this open-circulating cooling water system, cooling water is supplied from a cooling tower 1 to a heat exchanger 3 via a cooling water pipe 2 and a pump P, and is returned to the cooling tower 1 via a cooling water pipe 4. The cooling tower 1 (refrigeration capacity: 400 RT, water storage capacity: 30 m^3) was operated at a concentration factor of 5. The cooling tower 1 has a fan F and contains therein air-conditioning cooling water W. The free chlorine concentration of the air-conditioning cooling water W is measured by means of a sensor S and controlled by means of a free chlorine control section 5 and a combined chlorine control section 6. The free chlorine control section 5 includes a chemical tank 51 and a chemical feed inlet 52. Combined chlorine control section 6 includes a chemical tank 61 and a chemical feed inlet 62. The amount of free chlorine or combined chlorine is controlled on the basis of the free chlorine concentration as measured by means of the sensor S employing an ORP electrode.
# The amount of free chlorine was controlled through addition of a hypochlorite salt. Chlorosulfamic acid was employed as combined chlorine.
# In the water system, chlorosulfamic acid was added so that the chlorine concentration was adjusted to 15 mg-Cl/L with respect to blowing down the cooling water. In the water system, the amount of the hypochlorite salt added was controlled by means of the sensor S so that free chlorine concentration was 0.5 mg-Cl/L. Combined chlorine concentration was measured through the DPD method (determined by use of the following relation: combined chlorine concentration=total residual chlorine concentration−free chlorine concentration).
# Flaked slime was non-forcedly discharged through blowing down at an intensity according to the concentration factor, and a forced removal of the slime (e.g., cleaning) was not carried out. Thus, the water system was continuously operated, and change over time in combined chlorine concentration and free chlorine concentration in the water system was observed.
# The water system was continuously operated under the same conditions as in Example 4 (i.e., chlorosulfamic acid was added so that the chlorine concentration was adjusted to 15 mg-Cl/L with respect to blowing down the cooling water), except that free chlorine concentration was not controlled.
structure (smiles),measurement,setting,value
"O=S(=O)(O)NCl [Comparative Example 1, Chlorosulfamic acid]","Combined chlorine concentration, level over the operation period",operation period up to 20 days,maintained at low level
same,Free chlorine,period 1 days,0.0 mg/L
same,Combined chlorine,period 1 days,3 mg/L
same,Free chlorine,period 2 days,0.0 mg/L
same,Combined chlorine,period 2 days,4 mg/L
same,Free chlorine,period 8 days,0.1 mg/L
same,Combined chlorine,period 8 days,3 mg/L
same,Free chlorine,period 14 days,0.0 mg/L
same,Combined chlorine,period 14 days,2 mg/L
same,Free chlorine,period 20 days,0.1 mg/L
same,Combined chlorine,period 20 days,4 mg/L
